Common to all, as to assay: NCI tumour cell line growth inhibition, 48 h
Assay [1] relates to K-562 leukemia.
In assay [2] the test system is OVCAR-5 ovarian.
Assay [3] has as its system SK-OV-3 ovarian.
Assay [4] relates to MOLT-4 leukemia.
Assay [5] relates to OVCAR-4 ovarian.
Assay [6] concerns TK-10 renal.
Assay [7] has as its system NCI-H522 lung.
Assay [8] relates to EKVX NSCLC.
The subject of assay [9] is A498 renal.
Assay [10] deals with CAKI-1 renal.

From PubChem BioAssay (NCI) come the findings set out here.

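48-hour exposure; five concentrations; linearly interpolated endpoints. GI50 marks 50% less growth. Definition used: TGI = concentration required for complete inhibition of growth.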

Take `Oc1c(C(Nc2ccccc2Br)c2ccccc2)ccc2cccnc12` (stereo not given): the GI50 is 2.3 µM in assay [1]; 5.34 µM in [2]; 3.24 µM in assay [3]; 1.68 µM in [4]; 1.3 µM in assay [5]; 3.34 µM in [6]. Besides, the GI50 in [7] was 2.39 µM; in assay [8], 2.48 µM; in assay [9] it was 2.04 µM; in assay [10], 1.36 µM. Besides, the TGI in assay [1] was greater than 100 µM; in [2], 51.7 µM; in assay [3], 78.5 µM; in assay [4], 7.56 µM; in [5], 55 µM; in assay [6] it was 46.3 µM. The TGI is 16.6 µM in assay [7], greater than 100 µM in [8], 25.6 µM in assay [9] and 54.3 µM in [10].
`C#C[C@]1(O)CC[C@H]2[C@@H]3CC=C4c5sc(Nc6cc(F)ccc6F)nc5CC[C@]4(C)[C@H]3CC[C@@]21C`: the GI50 in assay [1] was 1.96 µM; in assay [2], 1.93 µM; in assay [3], 2.78 µM; in assay [4], 0.416 µM; in assay [5], 3.25 µM; in assay [6], 2.58 µM. Also, the GI50 in assay [7] was 2.08 µM; in [8], 1.53 µM; in assay [9], 1.37 µM; in assay [10] it was 1.38 µM. For the same molecule, the TGI was greater than 100 µM in [1]; 5.18 µM in [2]; 10.2 µM in [3]; 10.2 µM in assay [4]; 11.4 µM in assay [5]; 5.37 µM in assay [6]. Besides, the TGI in assay [7] amounted to 5.6 µM; in assay [8] it was 3.06 µM; in assay [9] it was 2.76 µM; in [10] it was 2.79 µM.
Regarding `O=S(=O)(O)O`, the TGI was 1230 µM in assay [1]; 1700 µM in assay [2]; 2650 µM in [3]; 1680 µM in [4]; 2080 µM in assay [5]; 2160 µM in assay [6]. The TGI in assay [7] was found to be 1770 µM; in assay [8] it was 2470 µM; in assay [9], 1780 µM; in assay [10], 1870 µM.
With `CO/N=C(\COc1ccc2c(=O)c3ccccc3oc2c1)c1ccccc1`, the GI50 in [1] was 72.1 µM; in assay [2], 38.4 µM; in assay [3], 29.7 µM; in assay [4], greater than 100 µM; in [5], 84.3 µM; in assay [6], 18.6 µM. Moreover, the GI50 in assay [7] is 33.4 µM; in assay [8] it was 20.9 µM; in assay [9] it was 20.3 µM; in [10], 1.19 µM. Also, the TGI was greater than 100 µM in assay [1]; greater than 100 µM in assay [2]; 77 µM in assay [3]; greater than 100 µM in assay [4]; greater than 100 µM in [5]; 38.1 µM in assay [6]. The TGI in [7] was greater than 100 µM; in [8], 50.6 µM; in [9] it was 47.7 µM; in assay [10] it was 4.89 µM.
On to `COc1c(C(C)=O)c(OCCCCOc2c(C(C)=O)c(OC)c3ccoc3c2OC)c(OC)c2occc12`, for which the GI50 in [1] was 5.45 µM; in assay [2] it was greater than 100 µM; in assay [3] it was greater than 100 µM; in assay [4], 1.23 µM; in assay [5], 3.39 µM; in assay [6], greater than 23.4 µM. Also, the GI50 is 2.63 µM in assay [7], 2.48 µM in assay [8], greater than 100 µM in [9] and 3.3 µM in assay [10]. Moreover, the TGI in assay [1] was greater than 100 µM; in [2], greater than 100 µM; in assay [3], greater than 100 µM; in [4], 3.1 µM; in [5] it was greater than 100 µM; in assay [6], greater than 100 µM. The TGI in [7], in assay [8], in [9] and in [10] was greater than 100 µM each time.
`COc1cc(-c2nc3ccccc3s2)ccc1OCCCCOc1cc2c(cc1OC)C(=O)N1CCC[C@H]1C=N2`: the GI50 in [1] is 0.372 µM; in assay [2], 1.13 µM; in [3], 2.66 µM; in assay [4], 0.952 µM; in assay [5], 1.5 µM; in assay [6], 2.27 µM. The GI50 in [7] is 0.736 µM; in assay [8], 2.24 µM; in assay [9] it was 1.6 µM; in assay [10], 0.949 µM. Also, the TGI in [1] stood at 5.88 µM; in assay [2], 4.93 µM; in assay [3], 5.44 µM; in assay [4], 7.99 µM; in [5] it was 7.61 µM; in assay [6] it was 8.81 µM. The TGI was determined as 3.16 µM in assay [7], 5.51 µM in assay [8], 4.16 µM in [9] and 11.6 µM in assay [10].
Regarding `COc1ccccc1/C=C1\COc2ccc(-c3ccccc3)cc2C1=O`, the GI50 in [1] is 4.54 µM; in assay [2], 5.29 µM; in [3], 3.7 µM; in assay [4], 2.16 µM; in assay [5] it was 3.74 µM; in assay [6], 2.64 µM. The GI50 in assay [7] was 3.1 µM; in assay [8], 5.59 µM; in assay [9], 2.53 µM; in assay [10], 4.74 µM. In addition, the TGI in assay [1] is greater than 100 µM; in assay [2] it was 21.1 µM; in assay [3] it was greater than 100 µM; in assay [4], greater than 100 µM; in [5] it was greater than 100 µM; in assay [6], 7.91 µM. Further, the TGI in assay [7] is greater than 100 µM; in [8] it was greater than 100 µM; in assay [9], 6.43 µM; in [10], greater than 100 µM.
Take `COc1ccc(C(=O)Cn2c(C(=O)c3ccccc3)nc3ccccc32)cc1`: the GI50 in assay [1] was 0.54 µM; in assay [2], greater than 26.1 µM; in assay [3], 6.58 µM; in assay [4], 1.87 µM; in assay [5], 9.9 µM; in assay [6], 11 µM. Moreover, the GI50 in assay [7] was 2.16 µM; in [8], 7.21 µM; in assay [9], 2.9 µM; in [10], greater than 100 µM. In addition, the TGI in assay [1], in assay [2], in [3], in [4], in assay [5] and in assay [6] was greater than 100 µM in each case. Besides, the TGI in assay [7] is greater than 26.7 µM; in assay [8], greater than 100 µM; in [9], greater than 100 µM; in assay [10], greater than 100 µM.
